Assay results published in article PMC9599717, “The Multicellular Effects of VDAC1 N-Terminal-Derived Peptide” (Biomolecules, 2022).

System: U-87MG (human glioblastoma)
Assay: Cell death by PI staining and flow cytometry (FACS), U-87MG
Assay type: cell-based
Conditions: U-87MG cells
Method: MEC-1 cells were incubated in a serum-free medium with various concentrations of VDAC1-based peptides for 1.5 h at room temperature (RT), collected by centrifugation, washed with phosphate-buffered saline (PBS), and analyzed for cell death. Adherent cancer cells were seeded in culture plates and allowed to adhere overnight in a sterile cell culture incubation chamber maintained at 37 °C and 5% CO2. The next day, media was removed from the plates, and cells were treated with various concentrations of VDAC1-based peptides for the indicated time in serum-free Dulbecco’s Modified Eagle Medium (DMEM) with and without DMSO (final 0.15%) as a control for 6 h at 37 °C and 5% CO2. Cells were trypsinized, centrifuged (1500× g, 5 min), and washed with PBS.
Cell death was analyzed by the propidium iodide (PI) staining, followed by flow cytometry with the iCyt sy3200 Benchtop Cell Sorter/Analyzer and analysis with EC800 v 1.3.7 software (Sony Biotechnology Inc., San Jose, CA, USA). Apoptosis was analyzed by PI and annexin V-FITC staining, which was carried out according to the manufacturer’s instructions with minor modifications. U-87MG cells, untreated (control) or treated with various concentrations of VDAC1-based peptides, were harvested and washed once with binding buffer (10 mM HEPES/NaOH, pH 7.4, 140 mM NaCl, and 2.5 mM CaCl2). […] Next, cells were washed and PI (6.25 μg/mL), was added immediately before flow cytometry At least 10,000 events were collected, recorded on a dot plot, and analyzed by flow cytometry.
Figure 1 VDAC1-based peptides induced cell death in various cancer cell lines. […] (E) Human cervix adenocarcinoma (HeLa) (▲) and human glioblastoma (U-87MG) (●, ○) cell lines were incubated 6 h with the indicated concentrations of D-Δ(1-18)N-Ter-Antp peptide and analyzed for cell death PI staining and flow cytometry (o,▲) or FITC–annexin V/PI staining and flow cytometry analysis (●). (F) U-87MG cells were treated with 10 µM (○), 20 µM (●) or without (Δ) of D-Δ(1-18)N-Ter-Antp peptide for the indicated times, and cell death was analyzed by PI staining and flow cytometry. […]

## 19-FTKGYGFGL-26- RQIKIWFQNRRMKWKK [D-Δ(1-18)N-Ter-Antp]
3-h incubation, 10 or 20 µM tested (Figure 1F), PI staining
  Cell death in time course: about 70%
6 h
  Maximal cell death (at the concentration for maximal cell death): 70%
6 h incubation, serum-free medium, PI staining and FACS, read-out: IC50, peptide concentration required for half-maximal cell death activity
  IC50: 6 µM
